Consider 1 compound from patent US20250017211A1, “SOLID P[…] CONTROL COMPOSITIONS AND METHODS” (Control Solutions, Inc., priority 2021, published 2025).

Structures are written as SMILES.

Assay [1] deals with all white grubs (scarab larvae). In words: Preventive control of scarab larvae in Kentucky bluegrass, first study, all white grubs. Format: in vivo, scarab beetle larvae. Particulars: study of Example 5. From the text:
The primary objectives of this study were to evaluate the influence of application rate and timing on the efficacy of novaluran applied preventively against scarab larvae in cool-season turfgrass. The experiment was located on a stand of turfgrass consisting primarily of Kentucky bluegrass maintained at 7.6 cm. Plots measuring 5×5 ft were arranged in a randomized complete-block design with 2 ft alleys between plots. […] Each treatment was replicated 4 times. Plots were irrigated Immediately after each set of applications (0.1″).
Japanese beetle larval infestations were created by driving two, 20.3 cm diameter PVC cylinders into each plot along its mid-line and caging one group of 40 Japanese beetle adults (50:50 sex ratio) within each cylinder during early July. Scarab larval populations were assessed Oct. 12-16, 2019 using a sod cutter to remove a strip of sod lying directly beneath the caging area of each plot and examining the soil to a depth of 3 inches. All scarab larvae recovered from the plots were identified to genus level, counted and recorded. Variation in scarab larval populations was examined using main effects ANOVA and treatment means were compared using Fisher's LSD test (α=0.05). Treatments and application dates were as described in Table 3.

Assay [2] relates to white grubs (Japanese beetles and masked chafers). Description: Preventive control of white grubs in Kentucky bluegrass, second study. Format: in vivo, scarab beetle larvae. Particulars: instant (second) study. On the procedure: As with the study of Example 5 above, the purpose of this study was to evaluate rates and timings of novaluron and a wetting agent (Syringe) for controlling white grubs in turfgrass. A trial was conducted on Kentucky bluegrass maintained at a height of 7.6 cm. A randomized complete block design with 4 replications of 5′×5′ plots were used. Treatments were applied and all plots were watered in (0.1″) immediately after application. Treatments and application dates were as described in Table 4. Caged Japanese beetle adults (20 male: 20 female) were placed within each plot. Plots were assessed using a sod cutter set to 3″ depth. All scarab beetle larvae recovered were identified to genus level.

For `O=C(NC(=O)c1c(F)cccc1F)Nc1ccc(OC(F)(F)C(F)OC(F)(F)F)c(Cl)c1` (stereo not shown) [Novaluron, novaluron], the Control in assay [1] (0.675 lb ai/A) is on record as 46-72%; in assay [1] (0.9 lb ai/A), 45-56%; in assay [2] (0.675 lb ai/A), 84-90%; in assay [2] (0.9 lb ai/A), 84-90%.
